Measurements as given in ChEMBL document CHEMBL1132656, “Design of highly active analogues of the pyrrolo[1,2-a]benzimidazole antitumor agents” (1999).

Experiments:
Mus musculus [1] = organism: Mus musculus; test: The compound was tested for its ability to get to the tumor site after indicates that there is a percent T/C of 50 or < 50(tumor mass 50% or < the control)]; format: functional; set-up: scale not given here
Mus musculus [2] = test: The compound was tested for its ability to get to the tumor site after subcutaneous administration [Score of 2 indicates that there is a percent T/C of 50 or < 50(tumor mass 50% or < the control)]; format: functional

## CC1=C(N2CC2)C(=O)c2nc3n(c2C1=O)CCC3OC(N)=O (stereo not drawn)
Mus musculus [1]
  Intraperitonal score: 24
Mus musculus [2]
  Subcutaneous score: 6

## CC(=O)NC1CCn2c1nc1c2C(=O)C(C)=C(N2CC2)C1=O (stereo not drawn)
Mus musculus [1]
  Intraperitonal score: 46
Mus musculus [2]
  Subcutaneous score: 6

## CC(=O)OC1CCn2c1nc1c2C(=O)C(C)=C(N2CC2)C1=O (stereo not drawn)
Mus musculus [1]
  Intraperitonal score: 40
Mus musculus [2]
  Subcutaneous score: 8

## CC(=O)N[C@H]1CCn2c1nc1c2C(=O)C(C)=C(N2CC2)C1=O
Mus musculus [1]
  Intraperitonal score: 38
Mus musculus [2]
  Subcutaneous score: 14
